Source: paper PMC7898822, “RNA‐PROTACs: Degraders of RNA‐Binding Proteins” (Angewandte Chemie (International Ed. in English), 2020)
Where two headings read alike, the source gives them in different places.

Key:
Lin28_ZKD [1] = biological target: T1, Lin28_ZKD (Homo sapiens, UniProt Q9H9Z2); assay: Fluorescence polarization competition assay (displacement of let7FAM from Lin28_ZKD); format: binding
T1 construct: construct encoding amino acids 124–186 of human Lin28; His6; made in house; host or cells: Escherichia coli BL21 (DE3) Codon+ (RIL)
T1 sequence (Q9H9Z2 124-186): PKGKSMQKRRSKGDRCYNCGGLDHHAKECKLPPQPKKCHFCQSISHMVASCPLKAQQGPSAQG
Procedure: Fluorescence Polarization Assay. Fluorescence polarization titration assay was carried out by titrating Lin28_ZKD protein into FAM-labeled PreE-let-7 at a 10 nM final concentration and buffer (10 mM HEPES, 150 mM NaCl, 10 µM ZiCl2, pH 7,4). The assay plate was briefly vortexed, and air bubbles were removed by spinning at 1000 rpm. The fluorescence anisotropy was measured on a Spectra Max Paradigm multimode plate reader (Molecular Devices). The fluorescence polarization competition […]
preE-let-7. The concentration of Lin28_ ZKD is kept at 40 nM, a value in the range of the dissociation constant of Lin28_ZKD and preE-let-7 determined through fluorescence polarization titration assay, whereas preE-let-7 concentration is kept constant at 10 nM. FP competitive binding assays were performed on 384-well plates (#3575, Corning) with a total well volume of 10 µL.
Fluorescence polarization readings were transferred into Prism 7.0 (GraphPad). All fluorescence polarization assays were repeated at least three times and the anisotropy values fitted using GraphPad Prism software using 1:1 binding/inhibition model. […]

Lin28A = assay: Western blot of Lin28A in K562 cells; format: cell-based, human; conditions: K562 cells, 48 h, western blot; three independent experiments
Excerpt: Finally, we tested RNA‐PROTACs for their ability to degrade their target in two cell lines: the embryonic NT2/D1 cell line, which expresses high levels of Lin28A, ^[13a] and K562 cells which express Lin28A and Lin28B. […] Finally, we co‐treated K562 cells with ORN3P1 and MG132, a reversible inhibitor of the 26S proteasome. […] In order to explore the versatility of RNA‐PROTACs with non peptide‐based VHL ligands, we conjugated small‐molecule VH032 ^[38] to ORN3 via an amino linker to yield ORN3VH032 (Figure S1). […]

Lin28_ZKD [2] = biological target: T1, Lin28_ZKD; assay: NMR 1H-15N HSQC titration of Lin28_ZKD; format: binding; conditions: 10 mM HEPES pH 7.0, 303K
Excerpt: The oligonucleotide element of an RNA‐PROTAC binds its target RBP via interactions at the riboses and the backbone, as well as the nucleobases. […] Thus, we used the same method to examine how various ribose modifications of L28RBE (Table 1, Figure S1) might affect binding of an RNA‐PROTAC to Lin28_ZKD.

K562 cells = assay: Intracellular uptake of FAM-labelled oligonucleotides, fluorescence microscopy; format: cell-based, human; conditions: FAM-conjugated, 1 µM, 24 h

Compound: CC[C@H](C)[C@H](NC(=O)[C@H](Cc1ccc(O)cc1)NC(=O)[C@@H]1C[C@@H](O)CN1C(=O)[C@H](C)NC(=O)[C@H](CC(C)C)NC(=O)CCCCCNC(=O)[C@@H](N)CSC1CC(=O)N(CCOP(=O)(S)OC[C@H]2O[C@@H](n3cnc4c(N)ncnc43)[C@H](OC)[C@@H]2OP(=O)(S)OC[C@H]2O[C@@H](n3cnc4c(=O)[nH]c(N)nc43)[C@H](OC)[C@@H]2OP(=O)(S)OC[C@H]2O[C@@H](n3cnc4c(=O)[nH]c(N)nc43)[C@H](OC)[C@@H]2OP(=O)(S)OC[C@H]2O[C@@H](n3cnc4c(N)ncnc43)[C@H](OC)[C@@H]2OP(=O)(S)OC[C@H]2O[C@@H](n3cnc4c(=O)[nH]c(N)nc43)[C@H](OC)[C@@H]2OP(=O)(S)OC[C@H]2O[C@@H](n3cnc4c(N)ncnc43)[C@H](OC)[C@@H]2OP(=O)(S)OC[C@H]2O[C@@H](n3ccc(=O)[nH]c3=O)[C@H](OC)[C@@H]2O)C1=O)C(=O)O (stereo partly drawn) [ORN4P1]
- IC50 (Lin28_ZKD [1]): 208 ± 27.4 nM

Compound: CCCC[C@H](NC(=O)[C@H](C)NC(=O)[C@H](CC(C)C)NC(=O)CCCCCNC(=O)[C@@H](N)CSC1CC(=O)N(CCOP(=O)(S)OC[C@H]2O[C@@H](n3cnc4c(N)ncnc43)[C@H](OC)[C@@H]2OP(=O)(S)OC[C@H]2O[C@@H](n3cnc4c(=O)[nH]c(N)nc43)[C@H](OC)[C@@H]2OP(=O)(S)OC[C@H]2O[C@@H](n3cnc4c(=O)[nH]c(N)nc43)[C@H](OC)[C@@H]2OP(=O)(S)OC[C@H]2O[C@@H](n3cnc4c(N)ncnc43)[C@H](OC)[C@@H]2OP(=O)(S)OC[C@H]2O[C@@H](n3cnc4c(=O)[nH]c(N)nc43)[C@H](OC)[C@@H]2OP(=O)(S)OC[C@H]2O[C@@H](n3cnc4c(N)ncnc43)[C@H](OC)[C@@H]2OP(=O)(S)OC[C@H]2O[C@@H](n3ccc(=O)[nH]c3=O)[C@H](OC)[C@@H]2O)C1=O)C(=O)N[C@@H](Cc1ccc(O)cc1)C(=O)N[C@H](C(=O)O)[C@@H](C)CC (stereo partly drawn) [ORN4Pcon]
- IC50 (Lin28_ZKD [1]): 206 ± 2.1 nM

Compound: CC[C@H](C)[C@H](NC(=O)[C@H](Cc1ccc(O)cc1)NC(=O)[C@@H]1C[C@@H](O)CN1C(=O)[C@H](C)NC(=O)[C@H](CC(C)C)NC(=O)CCCCCNC(=O)[C@@H](N)CSC1CC(=O)N(CCOP(=O)(S)OC[C@H]2O[C@@H](n3cc(C)c(=O)[nH]c3=O)[C@H](OCCOC)[C@@H]2OP(=O)(S)OC[C@H]2O[C@@H](n3cc(C)c(=O)[nH]c3=O)[C@H](OCCOC)[C@@H]2OP(=O)(S)OC[C@H]2O[C@@H](n3cc(C)c(=O)[nH]c3=O)[C@H](OCCOC)[C@@H]2OP(=O)(S)OC[C@H]2O[C@@H](n3cnc4c(N)ncnc43)[C@H](OCCOC)[C@@H]2OP(=O)(S)OC[C@H]2O[C@@H](n3cc(C)c(=O)[nH]c3=O)[C@H](OCCOC)[C@@H]2OP(=O)(S)OC[C@H]2O[C@@H](n3cc(C)c(=O)[nH]c3=O)[C@H](OCCOC)[C@@H]2OP(=O)(S)OC[C@H]2O[C@@H](n3cnc4c(=O)[nH]c(N)nc43)[C@H](OCCOC)[C@@H]2O)C1=O)C(=O)O (stereo partly drawn) [ORN5P1]
- activity in FP competition assay (in words) (Lin28_ZKD [1]; displacement of let7FAM from Lin28_ZKD): weak effect on Lin28_ZKD
- Lin28A suppression (in words) (Lin28A): inactive

Compound: ORN7: AGGAGAUAACU, PS-MOE (all 2'-MOE, all phosphorothioate, methylation of C and T or U not given here; further chemistry not fully specified)
- NMR chemical shift perturbation / signal change of Lin28_ZKD (Lin28_ZKD [2]; 1H-15N HSQC, 1:1 ratio): some of the NMR signals broadened or disappeared
- precipitation with Lin28_ZKD in NMR titration (Lin28_ZKD [2]; at higher concentrations): precipitation at higher concentrations was also observed
- IC50 (Lin28_ZKD [1]; Table 1, 40 nM Lin28_ZKD, 10 nM FAM-preE-let-7, 10 mM HEPES, 150 mM NaCl, pH 7.4, 30 min at 25 °C, 384-well, repeated at least three times, read-out: IC 50 determined by fluorescence polarization): 162 ± 38 nM
- intracellular localization (K562 cells): visible in the cytosol and the nuclei of cells
- relative uptake (K562 cells; compared with ORN3): higher than that of ORN3
